Measurements from patent US10188639B2, “Methods of treating neurological, metabolic, and other disorders using enantiopure deuterium-enriched pioglitazone” (DeuteRx, LLC, priority 2014, dated 2019).
Like-named read-outs stand apart in the source and are kept apart here.

How the values were obtained:
[1] = mouse, in vivo, po, 15 mg/kg
Method: (§1) Animals were then euthanized. Plasma was separated by centrifugation and stored at −80° C. until analyzed.
(§2) Concentrations were calculated by interpolation on standard curves generated from mouse plasma samples spiked with known concentrations of the pure analytes.

[2] = Body weight gain in male C57BL/6J mice on a standard diet; assay type: in vivo, mouse; conditions: twice daily oral gavage for 11 days; overall daily dose h-rac-pio 30 mg/kg, d-S-pio 15 mg/kg, d-R-pio 15 mg/kg; vs. vehicle
Method: Male C57BL/6J mice (about 28 g body weight) were acclimated singly-housed for one week to a reverse light/dark cycle with free access to water and standard maintenance diet. Animals were then handled daily for one week followed by another 7 days of twice daily dosing with vehicle (0.5% methylcellulose in water) by oral gavage. […] Body weights were measured twice daily, prior to each dosing, to adjust individual dosing volumes to actual body weights.

[3] = molecular target: human recombinant monoamine oxidase B (Homo sapiens (Human), UniProt P27338); assay: Monoamine oxidase B (MAO-B) inhibition, luminescence assay; assay type: biochemical
Chain of human recombinant monoamine oxidase B (P27338 whole entry): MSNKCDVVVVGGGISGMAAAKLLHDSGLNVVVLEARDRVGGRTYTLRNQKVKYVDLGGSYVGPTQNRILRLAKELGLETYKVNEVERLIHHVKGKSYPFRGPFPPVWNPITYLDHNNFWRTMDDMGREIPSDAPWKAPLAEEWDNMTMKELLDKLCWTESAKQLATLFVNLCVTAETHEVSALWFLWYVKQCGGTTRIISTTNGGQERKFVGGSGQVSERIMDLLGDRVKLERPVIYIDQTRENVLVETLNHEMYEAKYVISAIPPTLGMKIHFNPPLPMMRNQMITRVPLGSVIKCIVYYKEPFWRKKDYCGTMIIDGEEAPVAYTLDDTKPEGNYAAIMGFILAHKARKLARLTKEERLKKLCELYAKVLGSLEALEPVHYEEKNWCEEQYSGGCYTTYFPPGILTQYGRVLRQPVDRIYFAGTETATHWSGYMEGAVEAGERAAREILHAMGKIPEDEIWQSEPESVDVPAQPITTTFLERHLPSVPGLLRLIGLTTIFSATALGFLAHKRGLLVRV
Method: The mixtures were incubated at 22° C. for 5 min. Substrate (D-luciferin derivative) was added, and then the mixture was incubated at 37° C. for 60 min. The reaction was stopped by addition of the detection reagent containing luciferase. Luminescence was read after standing for 60 min at room temperature.
Results were expressed as a percentage of the luminescence of the control (enzyme+substrate). IC50 values were obtained by fitting experimental data (mean % luminescence as function of concentration) to the Hill equation with variable slope using non-linear regression analysis.

db/db mice = assay: db/db mouse model of type II diabetes, 10-day daily oral dosing; assay type: in vivo; conditions: for non-essential fatty acids: 20 mg/kg daily oral gavage, 10 days, compared with h-rac-pio 30 mg/kg; for decrease of IL-1β / decrease of IL-6 / decrease of TNF-α: d-R-pio 20 mg/kg; for adiponectin: d-S-pio 20 mg/kg
Method: Body weights were measured throughout the study. Non-fasting blood glucose (10 μL by tail snip) was measured 4 hours prior to first dose, and animals were sorted and assigned to groups based on this measure. […] A terminal blood sample was collected for determination of serum levels of cholesterol, triglycerides, free fatty acids, adiponectin, serum amyloid A, and cytokines IL-1β, IL-6, TNF-α, and MCP-1, using standard analytical methods. Quantitative results were analyzed by statistical methods using, as appropriate, one- or two-way ANOVA or Kruskal-Wallis tests for differences followed by Sidak's, Dunnett's, or Dunn's post-test to determine differences vs. vehicle-treated control animals. All graphs were generated with GraphPad Prism version 6.0.2 (GraphPad Software, Inc., La Jolla, Calif.).

[4] = Pharmacokinetics in male C57BL/6 mice after oral gavage for 5 days; conditions: day 5, oral gavage daily; for t1/2 (h) d-S: elimination half-life of d-S-pio; for t1/2 (h) h-R: elimination half-life of h-R-pio; for t1/2 (h) h-R / t1/2 (h) h-S: h-rac-pio 30 mg/kg, d-S-pio and d-R-pio 15 mg/kg; for t1/2 (h) h-S: elimination half-life of h-S-pio
Method: as §1, §2

[5] = plasma
Method: The plasma samples were incubated at 37° C. in duplicate (anticoagulant: K3EDTA). […] Samples were placed at −80° C. until the study was complete. […] The vortexed samples were centrifuged and 50 μL of supernatant was dispensed in a 96-well plate.
The deuterium in both enantiomers, d-S and d-R, can be lost by D/H exchange to give both protonated enantiomers, h-S and h-R with rate constants kDRR, kDRS, kDSR, and kDSS. At the same time, the protonated enantiomers h-S and h-R can exchange with enantiomerization rate constants kRS and kSR. All four compounds can also degrade with potentially different degradation rate constants kdSd, kdRd, khSd, and khRd.
Human and mouse plasma data were analyzed independently. […] Data in each species was analyzed using a stepwise approach.
The step between calculated time points was minimized in order to minimize the local error (proportional to the square of the step size) and the global error (proportional to the step size).

[6] = 10 days daily oral, h-rac-pio 30 mg/kg, vs. vehicle

t1/2 of h-R-pio, ln(2)/kRS ([5]; human) [h] | t1/2 of h-S-pio, ln(2)/kSR ([5]; human) [h] | t1/2 of h-R-pio, ln(2)/kRS ([5]; mouse) [h] | t1/2 of h-S-pio, ln(2)/kSR ([5]; mouse) [h] | SMILES | tmax (h) d-R [1] [h] | percent body weight difference versus day 1 body weight [2] | difference in inhibition efficacy between d-R-pio and d-S-pio [3] | non-essential fatty acids (db/db mice) | decrease of IL-1β (db/db mice; [6]) | decrease of IL-6 (db/db mice; [6]) | decrease of TNF-α (db/db mice; [6]) | t1/2 (h) d-S ([4]; 15 mg/kg) [h] | t1/2 (h) h-R [4] [h] | t1/2 (h) h-S [4] [h] | AUC0-inf (ng · h/mL) d-R ([4]; plasma d-R-pio, 15 mg/kg) [ng·h/mL] | Cmax (ng/mL) d-R ([4]; plasma d-R-pio, 15 mg/kg) [ng/mL] | adiponectin (db/db mice; [6]) | insulin (db/db mice; [6])
– | – | – | – | [2H][C@]1(Cc2ccc(OCCc3ccc(CC)cn3)cc2)SC(=O)NC1=O [d-R-pio, (R)-5-({p-[2-(5-Ethyl-2-pyridyl)ethoxy]phenyl}methyl)-(5-^2H)-1,3-thiazolidine-2,4-dione] | 1 | did not increase percent body weight difference over vehicle | greater than 5 fold | a similar trend was observed | trending | trending | trending | 0.8 | 2.5 | 2.5 | 18892 | 6360 | – | –
– | – | – | – | [2H][C@@]1(Cc2ccc(OCCc3ccc(CC)cn3)cc2)SC(=O)NC1=O [d-S-pio, (S)-5-({p-[2-(5-Ethyl-2-pyridyl)ethoxy]phenyl}methyl)-(5-^2H)-1,3-thiazolidine-2,4-dione] | – | statistically significant increase | – | a similar trend was observed | – | – | – | 2.3 | 3.2 | 3.1 | – | – | significantly increased | –
– | – | – | – | CCc1ccc(CCOc2ccc(CC3SC(=O)NC3=O)cc2)nc1 (racemic) [h-rac-pio, rac-5-({p-[2-(5-Ethyl-2-pyridyl)ethoxy]phenyl}methyl)-1,3-thiazolidine-2,4-dione, reference compound] | – | statistically significant increase | – | – | trending | trending | trending | – | – | – | – | – | significantly increased | significantly decreased
1.6 | 1.6 | 0.9 | 0.75 | [2H]C1(Cc2ccc(OCCc3ccc(CC)cn3)cc2)SC(=O)NC1=O (racemic) [d-rac-pio, rac-5-({p-[2-(5-Ethyl-2-pyridyl)ethoxy]phenyl}methyl)-(5-^2H)-1,3-thiazolidine-2,4-dione] | – | – | – | – | – | – | – | – | – | – | – | – | – | –
